In patent US20200268690A1, “TOPICAL COMPOSITIONS” (Atossa Therapeutics, Inc., priority 2017, published 2020):
Read-outs that look alike come from different tables or passages of the source.

Legend:
[1] = Solubility of endoxifen free base in polar organic solvents (HPLC-UV); format: physicochemical; conditions: for Z/E Ratio: room temperature
Description: (Z)-endoxifen free base was synthesized as described above in Example 1. (Z)-endoxifen was solubilized in various solvents as provided in Table 1, and tested for physical and chemical stability in solution. The solutions were prepared in ˜1 ml batches typically for solubility and stability testing. The mixture was stirred overnight on a rotisserie at room temperature. The next, day, the suspension was filtered using a syringe filter (0.2 um pore size GHP membrane). The filtrated solution was then analyzed for the concentration of (Z)-endoxifen and (E)-endoxifen as using a validated HPLC-UV method as described below.
(§1) HPLC-UV. Briefly, (E)- and (Z)-endoxifen were analyzed by High Performance Liquid Chromatography, HPLC (instrument: Agilent 1100) using a UV detector (Agilent). Chromatographic resolution was obtained using a Luna Phenyl Hexyl Column ([…]×150 mm) at a column temperature of 40° C. Samples were injected in an injection volume of 10 ul and run at a flow rate of 1.0 ml/min. The mobile phase system used consisted of: A) water with 10 mM ammonium formate (HCOONH4) with 0.03% formic acid and B) Methanol with 10 mM ammonium formate (HCOONH4).
UV detection of (E)-endoxifen and (Z)-endoxifen isomers was performed at 243 nm with a run time of 30 minutes. Retention times for (E)-endoxifen and (Z)-endoxifen were 15.14 m and 16.25 m respectively. […] The solubility of (Z)-endoxifen ranged from about 1 mg/g of solution to over 30 mg/g of solution.

[2] = Accelerated stability of (Z)-endoxifen free base in polar organic solvents in the absence and presence of human cadaver skin; format: physicochemical; conditions: for % Potency: relative to initiation of study; for potency and stability in presence of skin compared with absence of skin: in the solvents of Table 3, 45° C., after 2 days
Description: as §1
The stability studies of endoxifen free base in various pure polar organic solvents/MPEs were performed as described below. Accelerated stability studies of (Z)-endoxifen free base in solvents/MPEs were performed over a course of 2 days at 45° C. in both the presence and the absence of human cadaver skin to assess the degree to which the (Z)-endoxifen conversion to (E)-endoxifen by isomerization and or chemical degradation of the endoxifen is accelerated upon contact with skin and skin components. (Z)-Endoxifen solutions at […] of saturation concentrations were prepared in 1 ml batches in solvents as listed below in the Table 3. The potencies of (Z)-endoxifen and (E)-endoxifen were determined by HPLC-UV analysis as described above. Potency results are shown compared with potencies measured when the sample were stored at the initiation of stability study.

[3] = cited from earlier work
[4] = test system: patients; conditions: oral tamoxifen; cited from earlier work
[5] = in Diethyl Sebacate, 45° C. + skin, 2 days
[6] = in Diethyl Sebacate, 45° C., 2 days
[7] = in Diethylene glycol monoethyl ether, 45° C. + skin, 2 days
[8] = in Diethylene glycol monoethyl ether, 45° C., 2 days
[9] = in Diisopropyl Adipate, 45° C. + skin, 2 days
[10] = in Diisopropyl Adipate, 45° C., 2 days
[11] = in Dimethyl Isosorbide, 45° C. + skin, 2 days
[12] = in Dimethyl Isosorbide, 45° C., 2 days
[13] = in Dimethyl Sulfoxide, 45° C. + skin, 2 days
[14] = in Dimethyl Sulfoxide, 45° C., 2 days
[15] = in Dipropylene Glycol, 45° C. + skin, 2 days
[16] = in Dipropylene Glycol, 45° C., 2 days
[17] = in Isopropanol, 45° C. + skin, 2 days
[18] = in Isopropyl Myristate, 45° C. + skin, 2 days
[19] = in Isopropyl Myristate, 45° C., 2 days
[20] = in PEG 300, 45° C. + skin, 2 days

Row | Compound | % Potency [2, 5] | % Potency [2, 6] | % Potency [2, 7] | % Potency [2, 8] | % Potency [2, 9] | % Potency [2, 10] | % Potency [2, 11] | % Potency [2, 12] | % Potency [2, 13] | % Potency [2, 14] | % Potency [2, 15] | % Potency [2, 16] | % Potency [2, 17] | % Potency ([2]; in Isopropanol, 45° C., 2 days) | % Potency [2, 18] | % Potency [2, 19] | % Potency [2, 20] | % Potency ([2]; in PEG 300, 45° C., 2 days) | potency and stability in presence of skin compared with absence of skin [2] | also measured
1 | CC/C(=C(\c1ccc(O)cc1)c1ccc(OCCNC)cc1)c1ccccc1 [Endoxifen free base, (E/Z)-4-[1-[4-[2-(Methylamino)ethoxy]phenyl]-2-phenyl-1-buten-1-yl]-phenol] | – | – | – | – | – | – | – | – | – | – | – | – | – | – | – | – | – | – | – | solubility (in words) ([1]; in polar organic solvents/MPEs such as DMSO, ethanol, diethylene monoethyl ether, and oleic acid): significantly soluble; Z/E Ratio ([1]; saturated solution in Capric Trigylceride (Solvent No. 15)): 0.63; Z/E Ratio ([1]; saturated solution in Diethyl Sebacate (Solvent No. 2)): 1.7; Z/E Ratio ([1]; saturated solution in Diethylene glycol monoethyl ether (Solvent No. 10)): 1.89; Z/E Ratio ([1]; saturated solution in Diisopropyl Adipate (Solvent No. 3)): 1.87; Z/E Ratio ([1]; saturated solution in Dimethyl Isosorbide (Solvent No. 4)): 1.82; Z/E Ratio ([1]; saturated solution in Dimethyl Sulfoxide (Solvent No. 1)): 1.87; Z/E Ratio ([1]; saturated solution in Dipropylene Glycol (Solvent No. 5)): 1.82; Z/E Ratio ([1]; saturated solution in Ethanol (Solvent No. 6)): 1.72; Z/E Ratio ([1]; saturated solution in Isopropanol (Solvent No. 7)): 1.88; Z/E Ratio ([1]; saturated solution in Isopropyl Myristate (Solvent No. 12)): 1.09; Z/E Ratio ([1]; saturated solution in Oleic Acid (Solvent No. 14)): 1.02; Z/E Ratio ([1]; saturated solution in PEG300 (Solvent No. 8)): 1.77; Z/E Ratio ([1]; saturated solution in PEG 400 (Solvent No. 11)): 1.78; Z/E Ratio ([1]; saturated solution in Propylene Glycol (Solvent No. 9)): 1.60; Z/E Ratio ([1]; saturated solution in Soybean Oil (Solvent No. 13)): 0.76; stability (in words) ([2]; dissolved in dimethyl isosorbide and isopropyl myristate, 45° C., 2 days): poor stability
2 | CC/C(=C(\c1ccc(O)cc1)c1ccc(OCCNC)cc1)c1ccccc1.Cl [(Z)-endoxifen HCl] | – | – | – | – | – | – | – | – | – | – | – | – | – | – | – | – | – | – | – | t90 ([3]; 45° C.): 9 days; (Z)-endoxifen HCl remaining after degradation ([3]; aqueous medium, 45° C., day 15, from 98%): 75%; t90 ([3]; room temperature): 149 days
3 | CC/C(=C(\c1ccc(O)cc1)c1ccc(OCCNC)cc1)c1ccccc1 [(Z)-endoxifen free base, (Z)-4-(1-(4-(2-(methylamino)ethoxy)phenyl)-2-phenylbut-1-enyl)phenol] | 94% | 100% | 98% | 100% | 99% | 99% | 17% | 16% | 101% | 102% | 94% | 93% | 105% | 105% | 63% | 65% | 92% | 91% | maintained potency and stability | –
4 | CC/C(=C(/c1ccc(O)cc1)c1ccc(OCCNC)cc1)c1ccccc1 [(E)-endoxifen free base] | 99% | 101% | 98% | 100% | 101% | 100% | 16% | 15% | 101% | 101% | 95% | 95% | 106% | 106% | 68% | 67% | 92% | 91% | maintained potency and stability | –
5 | CC/C(=C(\c1ccccc1)c1ccc(OCCN(C)C)cc1)c1ccccc1 [tamoxifen, (Z)-2-[4-(1,2-diphenyl-1-butenyl)phenoxy]-N,N-dimethylethanamine] | – | – | – | – | – | – | – | – | – | – | – | – | – | – | – | – | – | – | – | patients with elevated liver function tests, especially SGOT/AST [4]: about 5%
